# Measurements: patent US9421204B2, “Oligomer modified diaromatic substituted compounds” (priority 2010, dated 2016)
# Counter-ions that a name gives are not always drawn.
# How the values were obtained:
# [1] = Log P determination (Sirius GLpKa); type: physicochemical
# Protocol: The Sirius GLpKa instrument is used to determine the pKa and Log P. A blank standardization has to be completed first and passed in order to conduct the compound experiments. The solutions used by the instrument for the blank titration include water, a pH solution, and a surfactant (TRITON X-100). The TRITON X-100 was purchased commercially from Sirus. The 0.5% solution of TRITON X-100 was used in the experiment. In a 1 L volumetric flask 5 mls of TRITON X-100 is added and MILLI Q water to volume. The vessels used by the instrument were filled to ⅓ of their volume with each solution. Therefore the assay tray contains one vessel for water, pH solution, and surfactant for the blank run. The temperature of the water bath for the instrument is 25° C. The blank is calculated as an average of three “good” experiments. The “good” was denoted by a green check mark next to the assay number in the computer software. Once the blank was run successfully the instrument was ready to conduct the experiments. An additional method has to be set up for the Log P determinations for each compound. The conjugates are weighed into vessels in the same manner as for the previous experiment, i.e., 10% of the molecular weight. The vessels are placed in the assay tray of the instrument. The experimental parameters are entered into the computer. These included sample weight, molecular weight, assay type (Partition Log P), number of assays (three), and pKa value of the parent drug from the previous experiment. The run was started. There are three measurements for each run that are averaged to obtain the final results from the data points collected in the calculation software. All runs were denoted as “good” by the green check mark next to the assay number.
# Caco-2 monolayers = experiment: in vitro; type: in vitro ADME; conditions: human, Caco-2, 2 h, 10 μM, pH 7.4
# Protocol: (§1) Each determination was performed in duplicate.
# (§2) Vr is the volume of the receiver compartment in cm^3.
# (§3) Vd is the volume of the donor compartment in cm^3.
# (§4) A is the area of the cell monolayer (1.13 cm^2 for 12-well Transwell®).
# (§5) CN is the nominal dosing concentration of the dosing solution in μM.
# (§6) CA is the average of the nominal dosing concentration and the measured 120 minute donor concentration in μM.
# (§7) Cr^final is the receiver concentration in μM at the end of the incubation period.
# (§8) Cd^final is the concentration of the donor in μM at the end of the incubation period.
# in vitro = in vitro ADME; conditions: human
# Protocol: as §1, §2, §3, §4, §5, §6, §7, §8
# CEM-SS cells = experiment: Toxicity XTT in CEM-SS cells (cytoprotection assay); type: cell-based; conditions: human
# Protocol: (§9) Cell Preparation—CEM-SS cells were passaged in T-75 flasks prior to use in the antiviral assay. On the day preceding the assay, the cells were split 1:2 to assure they were in an exponential growth phase at the time of infection. Total cell and viability quantification was performed using a hemocytometer and Trypan Blue dye exclusion. Cell viability was greater than 95% for the cells to be utilized in the assay. The cells were resuspended at 5×10^4 cells per ml in tissue culture medium and added to the drug containing microtiter plates in a volume of 50 μL.
# (§10) Plate Format—Each plate contains cell control wells (cells only), virus control wells (cells plus virus), drug toxicity wells (cells plus drug only), drug colorimetric control wells (drug only) as well as experimental wells (drug plus cells plus virus). Samples were tested in triplicate with eleven half-log dilutions per compound.
# (§11) Efficacy and Toxicity XTT—Following incubation at 37° C. in a 5% CO2 incubator, the test plates were stained with the tetrazolium dye XTT (2,3-bis(2-methoxy-4-nitro-5-sulfophenyl)-5-[(phenylamino)carbonyl]-2H-tetrazolium hydroxide). XTT-tetrazolium is metabolized by the mitochondrial enzymes of metabolically active cells to a soluble formazan product, allowing rapid quantitative analysis of the inhibition of HIV induced cell killing by anti-HIV test substances. XTT solution was prepared daily as a stock of 1 mg/mL in RPMI1640. Phenazine methosulfate (PMS) solution was prepared at 0.15 mg/mL in PBS and stored in the dark at −20° C. XTT/PMS stock was prepared immediately before use by adding 40 μL of PMS per ml of XTT solution. Fifty microliters of XTT/PMS was added to each well of the plate and the plate was re-incubated for 4 hours at 37° C. Plates were sealed with adhesive plate sealers and shaken gently or inverted several times to mix the soluble fosmazan product and the plate was read spectrophotometrically at 450/650 nm with a Molecular Devices Vmax plate reader.
# (§12) Data Analysis—Raw data was collected from the Softmax Pro 4.6 software and imported into a Excel XLFit4 spreadsheet for analysis by four parameter curve fit calculations. Both antiviral activity and toxicity are calculated.
# [2] = as above; type: cell-based; conditions: human, CEM-SS TC50
# Protocol: as §9, §10, §11, §12
# [3] = pKa determination (Sirius GLpKa); type: physicochemical
# Protocol: The Sirius GLpKa instrument is used to determine the pKa and Log P. A blank standardization has to be completed first and passed in order to conduct the compound experiments. The solutions used by the instrument for the blank titration include water, a pH solution, and a surfactant (TRITON X-100). The TRITON X-100 was purchased commercially from Sirus. The 0.5% solution of TRITON X-100 was used in the experiment. In a 1 L volumetric flask 5 mls of TRITON X-100 is added and MILLI Q water to volume. The vessels used by the instrument were filled to ⅓ of their volume with each solution. Therefore the assay tray contains one vessel for water, pH solution, and surfactant for the blank run. The temperature of the water bath for the instrument is 25° C. The blank is calculated as an average of three “good” experiments. The “good” was denoted by a green check mark next to the assay number in the computer software. Once the blank was run successfully the instrument was ready to conduct the experiments.
# The pKa has to be determined first in order to calculate the Log P. The API is used to determine the pKa needed for the Log P experiment followed by the conjugates. The base compound was first weighed into a vessel. The amount weighed for each sample was 10% of the molecular weight of the compound. The same procedure was followed for each conjugate. The vessels were placed in the assay tray of the instrument. A method had to be set up for the pKa run. The experimental parameters are entered into the computer software. These included sample weight, molecular weight, assay type (aqueous pKa), number of assays (three), and titration range (generally 3.5-12). The run was started. There are three measurements for each run that are averaged to obtain the final results from the data points collected in the calculation software. All runs were denoted as “good” by the green check mark next to the assay number.
smiles,measurement,setting,value
"CC(C)Nc1cccnc1N1CCN(C(=O)c2cc3cc(NS(C)(=O)=O)ccc3[nH]2)CC1 [Delavirdine Mesylate, reference compound]",logP,[1],3.5
same,Recovery (%) A→B,Caco-2 monolayers,82%
same,Recovery (%) B→A,Caco-2 monolayers,86%
same,"Papp A→B at 2 hours, 10 μM","in vitro; Caco-2, pH 7.4, Average Papp, A→B",9.87 ×10⁻⁶ cm/s
same,"Papp B→A at 2 hours, 10 μM","in vitro; Caco-2, pH 7.4, Average Papp, B→A",67.9 ×10⁻⁶ cm/s
same,"recovery at 2 h, 10 μM","in vitro; Caco-2, pH 7.4, Recovery (%) A→B",65%
same,CC50,CEM-SS cells,52.4 µM
same,CC50,[2],27.2 µM
same,pKa1,[3],4.323
same,pKa2,[3],9.272
